Consider 20 compounds from patent publication US9637484B2, “Cycloalkyl acid derivative, preparation method thereof, and pharmaceutical application thereof” (Shanghai Hengrui Pharmaceutical Co., Ltd., priority 2013, dated 2017).

The target of one data set is hURAT1 (Homo sapiens (Human), UniProt Q96S37). Briefly: Assay for inhibiting URAT1: uptake of 14C-uric acid in HEK293/hURAT1 cells. The format is cell-based. To be noted: 14C-uric acid 11.57 μM, 12 minutes at room temperature. The method, then:
In vitro URAT1 assay can be used to identify compounds having potential activity for decreasing serum uric acid. In a suitable test, the vectors that encode human URAT1 (URAT1 cDNA: Guangzhou Copoeia EX-T4563-M02) were used to transfect cells (human embryonic kidney cells, HEK293: Cell Bank of the Chinese Academy of Sciences, GNHu18). The transfected cells—HEK293/hURAT1 cells—were obtained, then their uptake ability of radiolabeled uric acid was determined. The activity of the compounds as URAT1 inhibitors can be evaluated by the ability of the compounds to block the uptake of uric acid in the transfected cells.
The HEK293/hURAT1 cells in Eagle's minimal essential medium (EMEM) were inoculated in a 48-well plate that was coated with poly-D-lysine (Becton Dickinson, Catalog No. 356509), with an inoculation density of 10^5 cells/well, and incubated overnight. A reaction solution containing ^14C— uric acid (American Radioactive Compound, Catalog No. ARC 0513A) with a final concentration of 11.57 μM was prepared by the use or non-use of the test compounds in Hanks balanced salt solution (HBSS). The Hanks balanced salt solution (HBSS) contained 125 mM sodium gluconate, 4.8 mM potassium gluconate, 1.2 mM potassium dihydrogen phosphate, 1.2 mM magnesium sulfate, 1.3 mM calcium gluconate, 5.6 mM glucose and 25 mM HEPES (pH 7.3). After the medium was washed with the wash buffer (125 mM sodium gluconate, 10 mM HEPES, pH 7.3) for one time, the reaction solution prepared from the above step was added to each well and incubated at room temperature for 12 minutes. Then the reaction solution was removed, the cells were washed twice with the wash buffer and lysed with 0.2 M NaOH for 5 minutes. The cell lysate was transferred to a 96-well culture plate with a scintillation fluid (PerkinElmer, Catalog No. 1450-401), and counting of radioactivity was carried out on a Microbeta counter (PerkinElmer).
The test compounds were dissolved in DMSO, then DMSO with the same concentration was added to HEK293/hURAT1 cell wells without the test compounds. Cellular uptake of uric acid under various test conditions was expressed as average percentage inhibition rates in comparison to DMSO control. Radioactive values from the wells containing DMSO were considered as 100% uptake of the cells. IC50 values were calculated from the data of the inhibition rates at various concentrations.
The above assay was used to determine the biochemical activity of the compounds of the present invention for inhibiting hURAT1.

Data set [1] is described as follows: Pharmacokinetics assay in SD rats, intragastric administration, plasma by LC/MS/MS. In kind it is in vivo, Sprague-Dawley (SD) rats. Conditions: 3.0 mg/kg; for Vd/F / AUC / CL/F / half-life / MRT / Cmax: both sexes, Sprague-Dawley, rat, plasma, po; for Vd/F: read-out: Apparent Distribution Volume Vz/F; for AUC: read-out: Area Under Curve AUC; for CL/F: read-out: Clearance CL/F; for half-life: read-out: Half-Life T½ (converted); for MRT: read-out: Mean Residence Time MRT; for Cmax: read-out: Plasma Conc. Cmax. The protocol:
Sprague-Dawley (SD) rats were used as test animals. The compounds of Example 1, Example 2 and Example 3 were administered intragastrically to rats to determine the drug concentration in plasma at different time points by a LC/MS/MS method. The pharmacokinetic behavior of the compounds of the present invention was studied and evaluated in rats.
12 Healthy adult SD rats, half male and half female, purchased from SINO-BRITSH SIPPR/BK LAB. ANIMAL LTD., CO, Certificate No.: SCXK (Shanghai) 2008-0016, were divided into three groups, with 4 rats in each group.
The appropriate amounts of test compounds were weighed and mixed with 0.5% CMC-Na to prepare a 0.3 mg/mL suspension by an ultrasonic method.
After an overnight fast, 12 SD rats, half male and half female, were divided into 3 groups, with 4 rats in each group, and administered the compounds intragastrically at a dose of 3.0 mg/kg and an administration volume of 10 mL/kg.
Blood samples (0.1 mL) were taken from the orbital sinus before administration, and at 0.5 h, 1 h, 2 h, 4 h, 6 h, 8 h, 11 h, 24 h and 48 h after administration, stored in heparinized tubes, and centrifuged for 10 minutes at 3,500 rpm to separate blood plasma. The plasma samples were stored at −20° C.
The concentration of the test compounds in rat plasma after intragastrically administering the test compounds was analyzed by a LC-MS/MS method. The linearity range of the method is 2.0-5000 ng/ml, and the lower limit of quantification is 2.00 ng/ml. Plasma samples were analyzed after protein precipitation.

Sequence of hURAT1 (Q96S37 whole entry): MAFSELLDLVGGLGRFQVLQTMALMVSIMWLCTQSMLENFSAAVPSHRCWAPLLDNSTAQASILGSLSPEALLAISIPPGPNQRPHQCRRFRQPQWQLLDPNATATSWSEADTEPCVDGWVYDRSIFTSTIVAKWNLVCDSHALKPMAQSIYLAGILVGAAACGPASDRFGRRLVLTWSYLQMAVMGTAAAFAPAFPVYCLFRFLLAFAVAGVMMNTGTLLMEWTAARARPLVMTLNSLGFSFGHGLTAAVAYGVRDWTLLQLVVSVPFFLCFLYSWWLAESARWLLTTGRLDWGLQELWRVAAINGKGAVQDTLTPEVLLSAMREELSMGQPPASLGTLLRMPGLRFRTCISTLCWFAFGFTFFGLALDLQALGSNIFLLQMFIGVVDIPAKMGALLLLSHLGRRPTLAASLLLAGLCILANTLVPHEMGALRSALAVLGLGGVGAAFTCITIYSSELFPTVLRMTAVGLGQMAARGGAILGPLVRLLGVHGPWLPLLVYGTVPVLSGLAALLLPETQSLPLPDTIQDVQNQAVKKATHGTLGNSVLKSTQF

Compound `O=C(O)C1(Sc2ccnc3ccc(C4CC4)cc23)CCC1` [Example 23, 1-((6-cyclopropylquinolin-4-yl)thio)cyclobutanecarboxylic acid] gave an IC50 against hURAT1 of 0.658 µM. This lies in the sub-micromolar range.

Compound `COCc1ccc2nccc(SC3(C(=O)O)CCC3)c2c1` [Example 9, 1-((6-(methoxymethyl)quinolin-4-yl)thio)cyclobutanecarboxylic acid] gave an IC50 against hURAT1 of 0.197 µM.

In the case of `O=C(O)C1(Sc2ccnc3ccc(F)cc23)CCC1` [Example 12, 1-((6-fluoroquinolin-4-yl)thio)cyclobutanecarboxylic acid], half-maximal inhibition against hURAT1 (IC50) was put at 0.557 µM.

`Cc1ccc2nccc(SC3(C(=O)O)CCC3)c2c1` [Example 30, 1-((6-methylquinolin-4-yl)thio)cyclobutanecarboxylic acid]: on hURAT1, the IC50 came to 0.343 µM.

`O=C(O)C1(Sc2ccnc3ccccc23)CCC1` [Example 1, 1-(quinolin-4-ylthio)cyclobutanecarboxylic acid] registered an IC50 against hURAT1 of 0.251 µM. Besides, in data set [1], the Vd/F was 0.652 ± 0.333 L/kg, the AUC turned out to be 20700 ± 5270 ng·h/mL, the CL/F was determined as 2.54 ± 0.68 mL/min/kg and the half-life is 2.84 ± 0.65 h. Besides, in data set [1], the MRT was determined as 3.15 ± 0.82 h and the Cmax is 8800 ± 1760 ng/mL.

On hURAT1, `N#Cc1ccc2nccc(SC3(C(=O)O)CCC3)c2c1` [Example 17, 1-((6-cyanoquinolin-4-yl)thio)cyclobutanecarboxylic acid] yielded an IC50 of 0.398 µM.

The compound `O=C(O)C1(Sc2ccnc3ccc(Br)cc23)CCC1` [Example 3, 1-((6-bromoquinolin-4-yl)thio)cyclobutanecarboxylic acid] had an IC50 on hURAT1 of 0.019 µM. In data set [1], the Vd/F came out at 0.878 ± 0.335 L/kg, the AUC stood at 28400 ± 8540 ng·h/mL, the CL/F is 1.89 ± 0.59 mL/min/kg and the half-life was 5.35 ± 1.12 h. In data set [1], the MRT was 8.15 ± 1.3 h and the Cmax came out at 3470 ± 854 ng/mL.

As for `O=C(O)C1(Sc2ccnc3ccc(-c4cccc(F)c4)cc23)CCC1` [Example 6, 1-((6-(3-fluorophenyl)quinolin-4-yl)thio)cyclobutanecarboxylic acid], on hURAT1, half-maximal inhibition (IC50) was put at 0.332 µM. This lies in the sub-micromolar range.

On to `O=C(O)C1(Sc2ccnc3ccc(Br)cc23)CC1` [Example 33, 1-((6-bromoquinolin-4-yl)thio)cyclopropanecarboxylic acid], for which 0.324 µM corresponded to half-maximal inhibition against hURAT1 (IC50).

`COC(=O)COc1ccc2nccc(SC3(C(=O)O)CCC3)c2c1` [Example 13, 1-((6-(2-methoxy-2-oxoethoxy)quinolin-4-yl)thio)cyclobutanecarboxylic acid]: at hURAT1, 0.164 µM corresponded to half-maximal inhibition (IC50).

As for `O=C(O)C1(Sc2ccnc3ccc(C(F)(F)F)cc23)CCC1` [Example 2, 1-((6-(trifluoromethyl)quinolin-4-yl)thio)cyclobutanecarboxylic acid], half-maximal inhibition on hURAT1 (IC50) was put at 0.061 µM. Further, in data set [1], the “Mean Residence Time MRT” value stood at 12.9 ± 5.8 h, the Vd/F was 1.21 ± 0.674 L/kg, the AUC came out at 38200 ± 25100 ng·h/mL and the CL/F turned out to be 1.95 ± 1.31 mL/min/kg. Moreover, in data set [1], the half-life is 8.83 ± 4.04 h and the Cmax is 2710 ± 919 ng/mL.

`O=C(O)C1(Sc2ccnc3ccc(-c4ccccc4C(F)(F)F)cc23)CCC1` [Example 22, 1-((6-(2-(trifluoromethyl)phenyl)quinolin-4-yl)thio)cyclobutanecarboxylic acid] yielded a 50% inhibitory concentration (IC50) at hURAT1 of 0.115 µM.

`O=C(O)C1(Sc2ccnc3ccc(Br)cc23)CCCC1` [Example 32, 1-((6-bromoquinolin-4-yl)thio)cyclopentanecarboxylic acid]: the IC50 against hURAT1 is 0.352 µM.

`COCCOc1ccc2nccc(SC3(C(=O)O)CCC3)c2c1` [Example 5, 1-((6-(2-methoxyethoxy)quinolin-4-yl)thio)cyclobutanecarboxylic acid] came in with an IC50 on hURAT1 of 0.207 µM.

Take `COc1ccc2nccc(SC3(C(=O)O)CCC3)c2c1` [Example 4, 1-((6-methoxyquinolin-4-yl)thio)cyclobutanecarboxylic acid]: the IC50 against hURAT1 came out at 0.343 µM.

For the compound `N#Cc1ccc(SC2(C(=O)O)CCC2)c2ccccc12` [Example 10, 1-((4-cyanonaphthalen-1-yl)thio)cyclobutanecarboxylic acid], the IC50 at hURAT1 was determined as 0.926 µM. Compared with the last compound, the IC50 is about 2.7-fold higher.

On hURAT1, `O=C(O)C1(Sc2ccnc3cc(Br)ccc23)CCC1` [Example 31, 1-((7-bromoquinolin-4-yl)thio)cyclobutanecarboxylic acid] showed an IC50 of 0.129 µM.

At hURAT1, `N#CCOc1ccc2nccc(SC3(C(=O)O)CCC3)c2c1` [Example 24, 1-((6-(cyanomethoxy)quinolin-4-yl)thio)cyclobutanecarboxylic acid] returned an IC50 of 0.68 µM.

On to `O=C(O)C1(Sc2ccnc3ccc(-c4ccc(F)cc4)cc23)CCC1` [Example 7, 1-((6-(4-fluorophenyl)quinolin-4-yl)thio)cyclobutanecarboxylic acid], for which the IC50 against hURAT1 came out at 0.159 µM.

`O=C(O)C1(Sc2ccnc3ccc(-c4cccc(C(F)(F)F)c4)cc23)CCC1` [Example 8, 1-((6-(3-(trifluoromethyl)phenyl)quinolin-4-yl)thio)cyclobutanecarboxylic acid] had an IC50 against hURAT1 of 0.359 µM.
